# According to patent US8883801B2, “Substituted pyrazolo[1,5-a]pyrimidines as mTOR inhibitors” (Merck Sharp & Dohme Corp., priority 2010, dated 2014):
# Like-named read-outs stand apart in the source and are kept apart here.
# Assays:
# [1] = system: mTORC2 activity: phosphorylated AKT Ser473 (pAKT S473) in PC3 cells; experiment: mTOR target engagement assay, immunofluorescent cell-based, mTORC2 readout; settings: Homo sapiens, PC-3, 1.5 h, 90 min treatment
# Description: The target engagement of mTOR kinase inhibitors was evaluated using an immunofluorescent cell-based assay. In this assay, inhibition of mTORC1 activity was measured by the reduction in the level of phosphorylated 4E-BP1Thr37/46 (p4E-BP1 Thr37/46), and inhibition of mTORC2 activity was measured by the reduction of phosphorylated AKTSer473 (pAKT S473).
# PC3 cells (prostate tumor cell-line that contains a mutation in the tumor suppressor PTEN, that promotes the phosphorylation and activation of AKT and 4E-BP1) were used in the immunofluorescence assay. PC3 cells were seeded on 384 well plates (black clear bottom, Matrix #4332) overnight. PC3 cells were then treated with 40 μl of the serially diluted test compounds (in 5% fetal bovine serum, F12 medium containing 0.25% DMSO) for ninety minutes at 37° C. The test compound solution was removed, and the plates were washed gently two times with 25 μl phosphate buffered saline (PBS). The cells were fixed by adding 25 μl of Prefer reagent (from Anatech LTD, Cat#414, a glyoxal fixative for fixing proteins within a cell) for sixty minutes followed by three washes with PBS. 5% Goat serum in PBS/0.3% Triton was used to block non-specific binding (60 minutes).
# The primary antibodies targeting pAKT S473 and p4E-BP1 Thr37/46 were diluted into PBS/0.3% Triton and incubated with the cells overnight at 4° C. The antibodies targeting pAKTS473 (Cat#4085, Cell signaling) and p4E-BP1 Thr37/46 (Cat#2855, Cell signaling) were used at a 1:100 dilution. Plates were washed three times with PBS/0.1% Tween 20 before adding the secondary antibody at a 1:200 dilution. (goat anti-rabbit containing a fluorescent label, Alexa Fluor 488, Cat#A11008, Invitrogen) in PBS/0.3% Triton for 60 minutes.
# Finally, the plates were washed three times with PBS/0.1% Tween 20 and the fluorescent intensity was read using an Analyst HT from Molecular Devices. The fluorescent intensity values from the serially diluted compound treatment group were analyzed using the Xlfit 4 program ([…]) (Formula 205: Y=Bottom+(Top-Bottom)/(1+(IC50/X)^Hillslope) to generate the IC50 value. Where Top is the maximum signal without Compound (+DMSO only) and Bottom represents maximum inhibition. Y is the fluorescence at some compound concentration. The control used to determine the fluorescent intensities for 100% pAKT S473 or 100% phosphorylated p4E-BP1 Thr37/46 were measured from untreated wells that contained only DMSO, instead of test compound.
# human mTOR enzyme = human mTOR enzyme (Homo sapiens, UniProt P42345); experiment: HTRF mTOR enzyme (kinase) assay; format: biochemical; settings: 5 μM ATP, 0.2 μM GST-S6K, read-out: hMTOR IC50
# Description: Methods: An HTRF mTOR enzyme assay was developed to assess the compounds' inhibitory activity. The mTOR assay buffer contained 10 mM Hepes (pH 7.4), 50 mM NaCl, […] BSA, 50 mM […], 10 mM MnCl2 and 0.5 mM DTT. […] 20 ng of human mTOR enzyme (<5% pure was preincubated with the compound for 10 minutes followed by the addition of 5 μM ATP and 0.2 μM GST-S6K (Zhang et al., Protein Expression and Purification 46, pp 414-420 (2006)). The reaction was incubated for one hour at 30° C. Anti phospho p70-S6K(Thr389) (˜1.7 ng/well, anti-phospho-p70S6K-cryptate (Pho-p70S6-Kin-K cat#64CUSKAY, from Cisbio)) and anti GST-XL665 (1:1 Ratio with the substrate GST-S6K, anti GST-XL665, cat#61GSTXLB) Cisbio) were added after the reaction was stopped. The plates were read (PHERAstar, BMG) at least 2 hours after adding the anti phospho p70-S6K and the anti GST-XL665.
# IC50 DETERMINATIONS: Dose-response curves were plotted from the inhibition data generated, each in duplicate, from 8 point serial dilutions of inhibitory compounds. Concentration of compound was plotted against the HTRF em665/em590 ratio signal. To generate IC50 values, the dose-response curves were fitted to a standard sigmoidal curve and IC50 values were derived by nonlinear regression analysis.
# human mTOR enzyme, sequence (P42345 1360-2549 limits assumed): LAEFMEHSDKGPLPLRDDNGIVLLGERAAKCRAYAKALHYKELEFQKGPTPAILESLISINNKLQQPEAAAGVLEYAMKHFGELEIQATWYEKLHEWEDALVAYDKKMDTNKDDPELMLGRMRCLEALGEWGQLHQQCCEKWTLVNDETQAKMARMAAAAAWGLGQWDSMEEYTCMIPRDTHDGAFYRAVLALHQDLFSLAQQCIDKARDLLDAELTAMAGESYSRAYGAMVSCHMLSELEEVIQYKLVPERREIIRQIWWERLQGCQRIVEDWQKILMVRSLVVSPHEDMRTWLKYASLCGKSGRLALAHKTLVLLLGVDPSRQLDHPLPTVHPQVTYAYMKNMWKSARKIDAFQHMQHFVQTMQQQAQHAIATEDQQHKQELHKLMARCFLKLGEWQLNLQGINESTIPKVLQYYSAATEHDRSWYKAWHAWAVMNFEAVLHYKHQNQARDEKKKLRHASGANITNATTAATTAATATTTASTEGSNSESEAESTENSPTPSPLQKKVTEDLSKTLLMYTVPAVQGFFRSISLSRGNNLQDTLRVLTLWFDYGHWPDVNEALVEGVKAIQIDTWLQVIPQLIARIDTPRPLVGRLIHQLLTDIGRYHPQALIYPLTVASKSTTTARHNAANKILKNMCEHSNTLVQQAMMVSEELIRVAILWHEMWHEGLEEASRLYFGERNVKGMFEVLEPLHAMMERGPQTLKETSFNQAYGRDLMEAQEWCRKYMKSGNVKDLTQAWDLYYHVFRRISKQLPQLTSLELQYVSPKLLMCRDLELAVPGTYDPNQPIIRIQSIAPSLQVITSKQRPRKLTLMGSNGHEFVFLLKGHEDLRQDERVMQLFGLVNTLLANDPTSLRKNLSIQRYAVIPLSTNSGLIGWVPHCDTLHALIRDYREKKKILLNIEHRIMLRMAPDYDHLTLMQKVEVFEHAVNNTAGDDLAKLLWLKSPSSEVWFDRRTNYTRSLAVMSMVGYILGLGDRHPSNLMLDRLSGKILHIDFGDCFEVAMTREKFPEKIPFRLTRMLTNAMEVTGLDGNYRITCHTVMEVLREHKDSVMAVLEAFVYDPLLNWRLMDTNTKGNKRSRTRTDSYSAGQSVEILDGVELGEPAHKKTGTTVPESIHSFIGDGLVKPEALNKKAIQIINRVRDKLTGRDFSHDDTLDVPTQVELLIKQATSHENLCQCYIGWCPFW
SMILES,IC50 ([1]; rated class) [nM],IC50 (human mTOR enzyme; rated class) [nM],IC50 ([1]; numeric value) [nM],IC50 (human mTOR enzyme; numeric value) [nM]
"COc1ccc(-c2ccc(-c3cnn4c(N)c(C(C)=O)c(C5CCC(O)(CO)CC5)nc34)cn2)cn1 (single isomer, unassigned) [Compound 146, 1-(7-amino-5-(4-hydroxy-4-(hydroxymethyl)-cyclohexyl)-3-(6′-methoxy-2,3′-bipyridin-5-yl)pyrazolo[1,5-a]pyrimidin-6-yl)ethanone]",2000 to 5000,1 to 100,–,–
"COCCOC[C@]1(C(=O)O)CC[C@@H](c2nc3c(-c4cnn(-c5ccccc5)c4)cnn3c(N)c2Br)CC1 [Compound 14, (1S,4S)-4-(7-amino-6-bromo-3-(1-phenyl-1H-pyrazol-4-yl)pyrazolo[1,5-a]pyrimidin-5-yl)-1-((2-methoxyethoxy)methyl)cyclohexane-carboxylic acid]",5000 to 15000,1 to 100,–,–
"COc1ccc(-c2ccc(-c3cnn4c(N)c(C(C)=O)c(C5CCC(O)(CO)CC5)nc34)cn2)cc1C(=O)O (stereo not shown) [Compound 155, 5-(5-(6-acetyl-7-amino-5-(4-hydroxy-4-(hydroxymethyl)-cyclohexyl)-pyrazolo-[1,5-a]pyrimidin-3-yl)pyridin-2-yl)-2-methoxybenzoic acid]",5000 to 15000,1 to 100,–,–
"COCCOC[C@]1(C(=O)O)CC[C@H](c2nc3c(-c4ccc(-c5ccccc5)nc4)cnn3c(N)c2Br)CC1 [Compound 11, (1R,4R)-4-(7-amino-6-bromo-3-(6-phenylpyridin-3-yl)pyrazolo[1,5-a]pyrimidin-5-yl)-1-((2-methoxyethoxy)methyl)cyclohexane-carboxylic acid]",–,–,2030,4.61
"COC1(C#N)CCC(c2nc3c(-c4ccc(-c5ccccc5)nc4)cnn3c(N)c2Br)CC1 (stereo not shown) [Compound 75, 4-(7-amino-6-bromo-3-(6-phenylpyridin-3-yl)pyrazolo[1,5-a]pyrimidin-5-yl)-1-methoxycyclohexane-carbonitrile]",2000 to 5000,1 to 100,–,–
"C[C@]1(C(=O)O)CC[C@@H](c2nc3c(-c4ccc(-c5ccccc5)nc4)cnn3c(N)c2Br)CC1 [Compound 2, (1S,4S)-4-(7-amino-6-bromo-3-(6-phenylpyridin-3-yl)pyrazolo[1,5-a]pyrimidin-5-yl)-1-methylcyclohexanecarboxylic acid]",2000 to 5000,1 to 100,–,–
"N#CC1(O)CCC(c2nc3c(-c4ccc(-c5ccccc5)nc4)cnn3c(N)c2Br)CC1 (stereo not shown) [Compound 74, 4-(7-amino-6-bromo-3-(6-phenylpyridin-3-yl)pyrazolo[1,5-a]pyrimidin-5-yl)-1-hydroxycyclohexanecarbonitrile]",2000 to 5000,1 to 100,–,–
"Nc1c(Br)c(C2CCC(N)(C(=O)O)CC2)nc2c(-c3ccc(-c4ccccc4)nc3)cnn12 (stereo not shown) [Compound 73, 1-amino-4-(7-amino-6-bromo-3-(6-phenylpyridin-3-yl)pyrazolo[1,5-a]pyrimidin-5-yl)cyclohexanecarboxylic acid]",5000 to 15000,1 to 100,–,–
"CC(=O)c1c(C2CCC(O)(CO)CC2)nc2c(-c3ccc(-c4cncs4)nc3)cnn2c1N (stereo not shown) [Compound 157, 1-(7-amino-5-(4-hydroxy-4-(hydroxymethyl)-cyclohexyl)-3-(6-(thiazol-5-yl)pyridin-3-yl)pyrazolo[1,5-a]pyrimidin-6-yl)ethanone]",2000 to 5000,1 to 100,–,–
"CS[C@]1(C(=O)O)CC[C@@H](c2nc3c(-c4cnn(-c5ccccc5)c4)cnn3c(N)c2Br)CC1 [Compound 10, (1R,4R)-4-(7-amino-6-bromo-3-(1-phenyl-1H-pyrazol-4-yl)pyrazolo[1,5-a]pyrimidin-5-yl)-1-(methylthio)-cyclohexane-carboxylic acid]",2000 to 5000,1 to 100,–,–

# Other lines, results leading:
IC50 ([1]; rated class) [nM],IC50 (human mTOR enzyme; rated class) [nM],IC50 ([1]; numeric value) [nM],IC50 (human mTOR enzyme; numeric value) [nM],SMILES
100 to 1000,1 to 100,–,–,"Nc1c(Br)c([C@H]2CC[C@@](O)(CC(=O)O)CC2)nc2c(-c3cnn(-c4ccccc4)c3)cnn12 [Compound 79, 2-((1R,4R)-4-(7-amino-6-bromo-3-(1-phenyl-1H-pyrazol-4-yl)pyrazolo[1,5-a]pyrimidin-5-yl)-1-hydroxycyclohexyl)-acetic acid]"
100 to 1000,1 to 100,–,–,"CC(=O)c1c(C2CCC(O)(CO)CC2)nc2c(-c3ccc(-c4ccccc4)nc3)cnn2c1N (stereo not shown) [Compound 138, 1-(7-amino-5-(4-hydroxy-4-(hydroxymethyl)cyclohexyl)-3-(6-phenylpyridin-3-yl)pyrazolo[1,5-a]pyrimidin-6-yl)ethanone]"
1000 to 2000,1 to 100,–,–,"CC(=O)c1c(C2CCC(O)(CO)CC2)nc2c(-c3cnn(-c4cscn4)c3)cnn2c1N (single isomer, unassigned) [Compound 152, 1-(7-amino-5-(4-hydroxy-4-(hydroxymethyl)-cyclohexyl)-3-(1-(thiazol-4-yl)-1H-pyrazol-4-yl)pyrazolo[1,5-a]pyrimidin-6-yl)ethanone]"
1 to 100,1 to 100,–,–,"CC(=O)c1c(C2CCC(O)(CO)CC2)nc2c(-c3cnn(-c4ccccc4)c3)cnn2c1N (stereo not shown) [Compound 141, 1-(7-amino-5-(4-hydroxy-4-(hydroxymethyl)cyclohexyl)-3-(1-phenyl-1H-pyrazol-4-yl)pyrazolo[1,5-a]pyrimidin-6-yl)ethanone]"
100 to 1000,1 to 100,–,–,"COCCO[C@]1(C(=O)O)CC[C@@H](c2nc3c(-c4ccc(-c5ccccc5)nc4)cnn3c(N)c2C(C)=O)CC1 [Compound 57, (1R,4R)-4-(6-acetyl-7-amino-3-(6-phenylpyridin-3-yl)pyrazolo[1,5-a]pyrimidin-5-yl)-1-(2-methoxyethoxy) cyclohexanecarboxylic acid]"
1000 to 2000,1 to 100,–,–,"COCCOC1(CO)CCC(c2nc3c(-c4cnn(-c5ccccc5)c4)cnn3c(N)c2Br)CC1 (stereo not shown) [Compound 83, (4-(7-amino-6-bromo-3-(1-phenyl-1H-pyrazol-4-yl)pyrazolo[1,5-a]pyrimidin-5-yl)-1-(2-methoxyethoxy)-cyclohexyl)methanol]"
100 to 1000,1 to 100,–,–,"CO[C@]1(CO)CC[C@@H](c2nc3c(-c4ccc(-c5ccccc5)nc4)cnn3c(N)c2C(C)=O)CC1 [Compound 84, 1-(7-amino-5-((1R,4R)-4-(hydroxymethyl)-4-methoxycyclohexyl)-3-(6-phenylpyridin-3-yl)pyrazolo[1,5-a]pyrimidin-6-yl)ethanone]"
100 to 1000,1 to 100,–,–,"Nc1c(Br)c([C@H]2CC[C@](O)(CCO)CC2)nc2c(-c3ccc(-c4ccccc4)nc3)cnn12 [Compound 137, (1S,4S)-4-(7-amino-6-bromo-3-(6-phenylpyridin-3-yl)pyrazolo[1,5-a]pyrimidin-5-yl)-1-(2-hydroxyethyl)cyclohexanol]"
1000 to 2000,1 to 100,–,–,"Nc1c(Br)c([C@H]2CC[C@](F)(C(=O)O)CC2)nc2c(-c3ccc(-c4ccccc4)nc3)cnn12 [Compound 3, (1S,4S)-4-(7-amino-6-bromo-3-(6-phenylpyridin-3-yl)pyrazolo[1,5-a]pyrimidin-5-yl)-1-fluorocyclohexane-carboxylic acid]"
100 to 1000,1 to 100,–,–,"COCCO[C@]1(C(=O)O)CC[C@@H](c2nc3c(-c4ccc(-c5nccs5)nc4)cnn3c(N)c2C(C)=O)CC1 [Compound 60, (1R,4R)-4-(6-acetyl-7-amino-3-(6-(thiazol-2-yl)pyridin-3-yl)pyrazolo[1,5-a]pyrimidin-5-yl)-1-(2-methoxyethoxy) cyclohexanecarboxylic acid]"
